From patent US9840494B2, “Quinazoline derivative” (Tianjin Hemay Oncology Pharmaceutical Co., Ltd., priority 2013, dated 2017)
Structures can show the parent of a compound that is named as a salt.

Tests used:
[1] = FDA application records; cited from earlier work
[2] = Li D et al., Oncogene 2008; cited from earlier work
[3] = Preliminary pharmacokinetic studies; format: in vivo
[4] = MTD assay, single administration to mice; format: in vivo; conditions: ICR male mice, tail intravenous administration, 14 days
Source text: MTD Assay for a Single […] to Mice
1. Experimental Animals: ICR male mice, weighing 19-22 g, were purchased from Beijing Vital River Laboratory Animal Technology Co., Ltd., Animal License No. SCXK (Beijing) 2007-0001
2. Experimental Scheme: 21 mice were divided into nine groups: groups I, IV and VI referred to one mouse per group, groups II, V and IIX referred to four mice per group, and group III, VI and IX referred to two mice per group. Compound 4, compound 2 and compound 12 were dissolved in water for injection. Groups I-III were subjected to tail intravenous administration of compound 4 (N-[4-(3-chloro-4-fluorophenylamino)-7-(2-methoxyethoxy)quinazolin-6yl]-2-[piperidin-4-ylidene]acetamide dihydrochloride) at doses of 100 mg/kg, 150 mg/kg, and 200 mg/kg, respectively. The animal response and the weight change were observed after administration, and these animals were sacrificed after 14 days for anatomical observation. Groups IV-VI were subjected to tail intravenous administration of compound 2 (N-[4-(3-chloro-4-fluorophenylamino)-7-(2-methoxyethoxy)quinazolin-6yl]-2-[1-(2-methoxyethyl)piperidin-4-ylidene]acetamide dihydrochloride) at doses of 100 mg/kg, 150 mg/kg, and 200 mg/kg, respectively. The animal response and the weight change were observed after administration, and these animals were sacrificed after 14 days for anatomical observation. Groups VII-IX were subjected to tail intravenous administration of compound 12 (N-[4-(3-ethynylphenylamino-7-(2-ethoxy)quinazolin-6yl]-2-[1-methylpiperidin-4-ylidene]acetamide dihydrochloride) at doses of 100 mg/kg, 150 mg/kg, and 200 mg/kg, respectively. The animal response and the weight change were observed after administration, and these animals were sacrificed after 14 days for anatomical observation.

CN(C)C/C=C/C(=O)Nc1cc2c(Nc3ccc(F)c(Cl)c3)ncnc2cc1O[C@H]1CCOC1 [Afatinib]
bioavailability [1]: 11.175% | MTD [2]: 30 mg/kg

COCCOc1cc2ncnc(Nc3ccc(F)c(Cl)c3)c2cc1NC(=O)C=C1CCNCC1 [Compound 4, N-[4-(3-chloro-4-fluorophenylamino)-7-(2-methoxyethoxy)quinazolin-6yl]-2-[piperidin-4-ylidene]acetamide dihydrochloride]
distribution (gathering in the gastrointestinal tract) [3]: gathered in the gastrointestinal tract | oral bioavailability [3]: very low | Mortality ([4]; 100 mg/kg, 1 animal): 0% | Number of Deaths ([4]; 100 mg/kg, 1 animal): 0 | Mortality ([4]; 150 mg/kg, 4 animals): 0% | Number of Deaths ([4]; 150 mg/kg, 4 animals): 0 | Mortality ([4]; 200 mg/kg, 2 animals): 50% | Number of Deaths ([4]; 200 mg/kg, 2 animals): 1

C#Cc1cccc(Nc2ncnc3cc(OCC)c(NC(=O)C=C4CCN(C)CC4)cc23)c1 [Compound 12, N-[4-(3-ethynylphenylamino-7-(2-ethoxy)quinazolin-6-yl]-2-[1-methylpiperidin-4-ylidene]acetamidedihydrochloride]
distribution (gathering in the gastrointestinal tract) [3]: gathered in the gastrointestinal tract | oral bioavailability [3]: very low | Mortality ([4]; 100 mg/kg, 1 animal): 0% | Number of Deaths ([4]; 100 mg/kg, 1 animal): 0 | Mortality ([4]; 150 mg/kg, 4 animals): 50% | Number of Deaths ([4]; 150 mg/kg, 4 animals): 2 | Mortality ([4]; 200 mg/kg, 2 animals): 100% | Number of Deaths ([4]; 200 mg/kg, 2 animals): 2
